These results are taken from patent US20070270403A1 (priority 2003, published 2007).

For data set [1] the following is noted: cited from earlier work.
For data set [2] the following is noted: independent of the rate of metabolism; cited from earlier work.
The conditions of data set [3]: cited from earlier work. This is another data set of the same source.
In data set [4] the test system is Sprague-Dawley laboratory rats. Put plainly: Locomotor activity (ambulations) by infrared photobeams (clozapine studies). Type of data set: in vivo, Sprague-Dawley Rattus Norvegicus. The settings on record: Acute, clozapine 20 mg/kg i.p. + cocaine 10 mg/kg i.p. From the text: Locomotor activity (ambulation) was monitored with infrared photobeams at the same time as DA and 5-HT release in NAcc was detected with BRODERICK PROBES® in conjunction with In Vivo Microvoltammetry. The chamber was faradaic, covered with copper to refract possible electrical artifacts (dimensions: 24 in (width) by 18 in (depth) by 23.5 in (height)). A 16 by 16 array of these infrared photobeams, were held in place by an aluminum frame which was situated ¾ in above the Plexiglas floor of the chamber to detect locomotor activity. Photobeams were sampled by a Pentium computer to define the x-y position of the animal within a 1.5 in resolution every 100 msec. When an x-y position was calculated, it was used to define the frequency of locomotor activity in counts. The locomotor activity system is a modified version of an Activity Pattern Monitor (APM) (San Diego Instruments, San Diego, Calif.). Behavioral data is presented in absolute frequency, i.e., number of counts recorded.
The first hr pre-drug allowed exploratory behavior. Exploratory behavior is defined as open-field behavior of ambulations (forward locomotion) wherein animals respond to the stimuli of a novel environment with high frequency of behavioral counts. The second hr pre-drug allowed the animal to become habituated before treatment.
In the Acute studies, each drug was administered at the end of the habituation period. Baseline (control) values were taken every five min for the last thirty min of the habituation period at which time drug injection(s) took place. Electrochemical recordings for DA and 5-HT release in NAcc, were continued for two hrs; at the same time, locomotor behavior continued to be monitored and recorded with infrared photobeams. At the end of the 2 hr drug(s) study, animals were then placed back in their home cages.
In the Subacute studies, which took place twenty-four hrs later, the animals were again placed in the faradaic behavioral chamber and no further drug was administered. Recordings of separate electrochemical signals for DA and 5-HT release in NAcc, were taken for one hr; at the same time, locomotor behavior was monitored and recorded with infrared photobeams.
Neurochemical and behavioral data, derived from the last thirty minutes of the habituation period, provided the baseline data. […] Where appropriate, data points in the time course were subjected to 95% Confidence Limits (C.L.).

For the next data set, the system named is 5-HT release in NAcc. Put plainly: In vivo microvoltammetry, 5-HT release in NAcc (clozapine studies). The arrangement: species or system Sprague-Dawley Rattus Norvegicus. The settings on record: Acute, clozapine 20 mg/kg i.p. + cocaine 10 mg/kg i.p. The protocol:
(§1) There is an increasing awareness that a psychosis, similar to that of schizophrenic psychosis, can be derived from cocaine addiction. […] Release mechanisms for monoamines, were determined by using a depolarization blocker, gamma-butyrolactone (γBL). […] Acute and Subacute studies were performed for each treatment group.
(§2) The stereotaxic equipment was purchased from David Kopf Instruments, Tujunga, Calif. A Ag/AgCl reference electrode was placed in contact with dura, 7 mm anteriorally and contralaterally to the indicator microelectrode. A stainless steel auxiliary microelectrode was placed in contact with dura. BRODERICK PROBE® microelectrodes were manufactured on site.
(§3) In vivo microvoltammetric studies on conscious Sprague-Dawley laboratory rats were begun nine to fifteen days after the aseptic surgical operations were performed. On each experimental day, the animal was placed in a Plexiglas-copper faradaic chamber. The three-microelectrode assembly, enclosed within the animal's prosthetic acrylic cap, was connected to a CV37 detector by means of a mercury commutator (Br. Res. Instr., Princeton, N.J.), a flexible cable, and a mating connector (BJM Electronics, Staten Island, N.Y.). The CV37 detector was electrically connected to a Minigard surge suppresser (Jefferson Electric, Magnetek, N.Y.) which was then connected to an electrical ground in isolation. […] Each animal was used as its own control. Changes in synaptic concentrations of DA and 5-HT are presented as percent change (% of control) in order to minimize normal between-animal variations. […] In vivo microvoltammetric scans were recorded in sec and repeated every five min for a period of 2 hrs before each treatment and a period of two hrs after each treatment.
(§4) Potentials were applied with a CV37 detector (BAS, West Lafayette, Ind.). Potentials were applied from −0.2V to +0.4V with respect to a Ag/AgCl (1M NaCl) electrode, at a scan rate of 10 mV/sec at time constants of 5 and 1 tau. One scan was completed in 60 sec. Non-faradaic charging current was eliminated in the first 25 sec.
(§5) Calibration curves were determined experimentally, in vitro, in a freshly prepared deoxygenated physiological saline-phosphate buffer solution (0.01 M, pH=7.4). We use ultra pure Nitrogen (N2) (T. W. Smith Corp., Bklyn, N.Y.) to deoxygenate the buffer solution. […] Calibration studies were also performed in freshly prepared deoxygenated buffer solutions containing phosphotidylethanolamine (PEA), combined with bovine serum albumin (BSA) (Sigma Aldrich, St. Louis, Mo.), a solution which closely mimics brain constituents. […] Detection limits for basal synaptic concentrations of DA and 5-HT in NAcc were 12 nM and 2 nM respectively.

The test system of another data set is DA release in NAcc. The experiment in a line: In vivo microvoltammetry, DA release in NAcc (clozapine studies). The arrangement: species or system Sprague-Dawley Rattus Norvegicus. As to conditions: Acute, clozapine 20 mg/kg i.p. + cocaine 10 mg/kg i.p. The protocol:
as §1, §2, §3, §4, §5

Where two headings read alike, the source gives them in different places.

Take `CN1[C@H]2CC[C@@H]1[C@@H](C(=O)O)[C@@H](OC(=O)c1ccccc1)C2` [benzoylecgonine]: in data set [1] (after bolus injections (e.g., 14.7 umol/kg)), the elimination half-life is 0.667 to 0.733 h.
Turning to `COC(=O)[C@H]1[C@@H](OC(=O)c2ccccc2)C[C@@H]2CC[C@H]1N2` [norcocaine], the Detection in brain entry in data set [1] (after i.v. cocaine (20-40 mg/kg)) is recorded as “not detected at all”.
Regarding `Cc1nc2n(c(=O)c1CCN1CCC(c3noc4cc(F)ccc34)CC1)CCCC2O` (centres unmarked) [9-hydroxyrisperidone], the “Time for which the metabolite is active” value in data set [2] is 22 h.
Usually half-life stands for the time in which the quantity being followed falls by half. In the case of `CN1CCN(C2=Nc3cc(Cl)ccc3Nc3ccccc32)CC1` [Clozapine, clozapine], the half-life in data set [3] (at higher doses) was 4 to 66 h; in data set [3] (at lower doses), 8 h. The results for the “Average reduction of locomotor activity (ambulation counts) produced by cocaine” value in data set [4] (first half hr) and in data set [4] (next hr of study) were 500 counts and 150 counts, respectively. Besides, the results for the “Average reduction of cocaine-induced increases in 5-HT release in NAcc” value in the data set with 5-HT release in NAcc (first hr of study) and in the data set with 5-HT release in NAcc (second hr of study) were 138% and 113%, respectively. For the same compound, the results for the “Average reduction of cocaine-induced increases in DA release in NAcc” value in the data set on DA release in NAcc (first hr of study) and in the data set with DA release in NAcc (second hr of study) were 40% and 50%, respectively.
